Assay [1] deals with Tyrosine-protein kinase ABL1 (Homo sapiens) (UniProt P00519). Put plainly: Binding affinity to human wild type ABL1 (229 to 512 residues) expressed in mammalian expression system assessed as fraction of unbound kinase to substrate at 0.1 uM after 1 hr by KinomeScan assay.
For assay [2] the target is unchanged. As to the kind of experiment: Binding affinity to human wild type ABL1 (229 to 512 residues) expressed in mammalian expression system assessed as fraction of unbound kinase to substrate at 10 uM after 1 hr by KinomeScan assay.
For assay [3], the target named is T1, Aurora kinase A (Homo sapiens) (UniProt O14965).
T1 sequence (whole entry): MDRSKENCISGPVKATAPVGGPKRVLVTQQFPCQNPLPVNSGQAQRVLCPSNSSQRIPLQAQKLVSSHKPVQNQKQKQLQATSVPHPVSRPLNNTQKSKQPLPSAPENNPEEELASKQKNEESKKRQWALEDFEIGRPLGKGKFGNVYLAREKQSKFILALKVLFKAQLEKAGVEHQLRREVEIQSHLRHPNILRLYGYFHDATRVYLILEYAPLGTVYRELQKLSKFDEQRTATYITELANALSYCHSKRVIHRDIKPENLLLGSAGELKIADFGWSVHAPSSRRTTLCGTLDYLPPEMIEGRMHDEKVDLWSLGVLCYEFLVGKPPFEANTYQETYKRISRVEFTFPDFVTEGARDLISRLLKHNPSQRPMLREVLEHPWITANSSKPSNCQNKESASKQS
Put plainly: Binding affinity to wild-type human partial length AURKA (E122 to K401 residues) expressed in mammalian expression system assessed as fraction of unbound kinase to substrate at 0.1 uM after 1 hr by KinomeScan assay.

The target of assay [4] is Cyclin-dependent kinase 2 (Homo sapiens) (UniProt P24941). Put plainly: Binding affinity to wild-type human full length CDK2 (M1 to L298 residues) expressed in bacterial expression system assessed as fraction of unbound kinase to substrate at 1 uM after 1 hr by KinomeScan assay.
Assay [5] has the same target. As to the kind of experiment: Binding affinity to wild-type human full length CDK2 (M1 to L298 residues) expressed in bacterial expression system assessed as fraction of unbound kinase to substrate at 10 uM after 1 hr by KinomeScan assay.
For assay [6], the target named is Fibroblast growth factor receptor 1 (Homo sapiens) (UniProt P11362). Put plainly: Binding affinity to wild-type human partial length FGFR1 (P357 to V669 residues) expressed in bacterial expression system assessed as fraction of unbound kinase to substrate at 1 uM after 1 hr by KinomeScan assay.
Fibroblast growth factor receptor 1 (Homo sapiens), sequence (P11362 22-822 limits assumed): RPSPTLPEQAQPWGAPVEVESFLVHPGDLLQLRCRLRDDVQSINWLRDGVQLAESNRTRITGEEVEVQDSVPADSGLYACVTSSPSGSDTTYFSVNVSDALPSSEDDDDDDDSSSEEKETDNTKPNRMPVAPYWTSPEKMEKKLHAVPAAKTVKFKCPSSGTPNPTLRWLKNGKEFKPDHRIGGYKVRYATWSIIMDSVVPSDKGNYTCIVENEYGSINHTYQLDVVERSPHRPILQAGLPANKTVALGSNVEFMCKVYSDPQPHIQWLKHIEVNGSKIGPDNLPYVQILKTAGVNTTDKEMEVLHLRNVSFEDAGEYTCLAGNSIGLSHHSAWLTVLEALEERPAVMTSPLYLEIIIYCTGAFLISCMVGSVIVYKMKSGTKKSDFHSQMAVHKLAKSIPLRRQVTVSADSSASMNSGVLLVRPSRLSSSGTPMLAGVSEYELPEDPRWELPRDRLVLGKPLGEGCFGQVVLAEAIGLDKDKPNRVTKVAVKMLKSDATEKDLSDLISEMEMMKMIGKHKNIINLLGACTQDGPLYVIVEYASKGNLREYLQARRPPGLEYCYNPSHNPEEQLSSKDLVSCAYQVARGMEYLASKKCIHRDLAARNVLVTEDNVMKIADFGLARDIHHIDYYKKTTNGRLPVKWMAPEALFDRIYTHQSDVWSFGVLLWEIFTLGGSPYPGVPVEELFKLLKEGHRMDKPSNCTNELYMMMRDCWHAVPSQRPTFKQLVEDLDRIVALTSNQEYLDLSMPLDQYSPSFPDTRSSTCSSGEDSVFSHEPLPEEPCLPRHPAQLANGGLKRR
For assay [7], the target named is Hepatocyte growth factor receptor (Homo sapiens) (UniProt P08581). As to the kind of experiment: Binding affinity to human MET (D1010 to S1367 residues) expressed in bacterial expression system assessed as fraction of unbound kinase to substrate at 1 uM after 1 hr by KinomeScan assay.
Hepatocyte growth factor receptor (Homo sapiens), sequence (P08581 whole entry, the tested form may be a part): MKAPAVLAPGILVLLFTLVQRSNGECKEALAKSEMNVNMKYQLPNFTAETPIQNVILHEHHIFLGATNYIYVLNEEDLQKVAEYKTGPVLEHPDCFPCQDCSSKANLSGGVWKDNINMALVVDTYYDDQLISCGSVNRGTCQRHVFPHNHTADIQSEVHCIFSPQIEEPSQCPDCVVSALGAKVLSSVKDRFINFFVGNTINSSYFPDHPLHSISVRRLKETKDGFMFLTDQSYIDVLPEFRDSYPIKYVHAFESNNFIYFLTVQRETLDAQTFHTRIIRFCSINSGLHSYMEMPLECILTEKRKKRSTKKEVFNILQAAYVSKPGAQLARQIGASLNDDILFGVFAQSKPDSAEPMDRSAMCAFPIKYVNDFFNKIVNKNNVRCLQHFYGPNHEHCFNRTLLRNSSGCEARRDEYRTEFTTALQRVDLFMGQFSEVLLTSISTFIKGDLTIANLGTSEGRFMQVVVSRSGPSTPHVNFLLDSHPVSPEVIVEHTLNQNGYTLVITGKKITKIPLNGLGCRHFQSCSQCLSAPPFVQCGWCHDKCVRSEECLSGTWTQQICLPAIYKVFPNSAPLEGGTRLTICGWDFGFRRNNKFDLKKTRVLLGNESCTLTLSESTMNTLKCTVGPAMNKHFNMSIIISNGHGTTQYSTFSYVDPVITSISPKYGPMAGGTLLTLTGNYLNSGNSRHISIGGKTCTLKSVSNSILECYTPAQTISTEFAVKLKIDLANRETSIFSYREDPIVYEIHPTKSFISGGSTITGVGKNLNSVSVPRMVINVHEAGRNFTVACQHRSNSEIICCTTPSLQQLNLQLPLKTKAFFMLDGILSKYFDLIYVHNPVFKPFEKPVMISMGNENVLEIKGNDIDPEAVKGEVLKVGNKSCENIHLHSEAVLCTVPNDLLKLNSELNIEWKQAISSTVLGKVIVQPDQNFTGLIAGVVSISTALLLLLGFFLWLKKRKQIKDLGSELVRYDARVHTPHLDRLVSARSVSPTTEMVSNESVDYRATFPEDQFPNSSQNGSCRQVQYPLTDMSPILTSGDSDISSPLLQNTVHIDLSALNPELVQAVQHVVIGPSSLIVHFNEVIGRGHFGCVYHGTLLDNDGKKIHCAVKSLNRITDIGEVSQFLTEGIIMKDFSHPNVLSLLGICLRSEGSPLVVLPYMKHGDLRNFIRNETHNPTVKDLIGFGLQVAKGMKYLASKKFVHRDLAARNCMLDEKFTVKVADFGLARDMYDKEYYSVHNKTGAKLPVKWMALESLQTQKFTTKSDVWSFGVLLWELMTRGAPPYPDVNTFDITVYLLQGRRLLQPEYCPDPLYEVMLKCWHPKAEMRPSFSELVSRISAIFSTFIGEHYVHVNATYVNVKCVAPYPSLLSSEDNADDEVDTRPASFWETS
Assay [8] shares this target. As to the kind of experiment: Binding affinity to human MET (D1010 to S1367 residues) expressed in bacterial expression system assessed as fraction of unbound kinase to substrate at 10 uM after 1 hr by KinomeScan assay.
The target in assay [9] is T2, Tyrosine-protein kinase receptor TYRO3 (Homo sapiens) (UniProt Q06418).
T2 sequence (whole entry): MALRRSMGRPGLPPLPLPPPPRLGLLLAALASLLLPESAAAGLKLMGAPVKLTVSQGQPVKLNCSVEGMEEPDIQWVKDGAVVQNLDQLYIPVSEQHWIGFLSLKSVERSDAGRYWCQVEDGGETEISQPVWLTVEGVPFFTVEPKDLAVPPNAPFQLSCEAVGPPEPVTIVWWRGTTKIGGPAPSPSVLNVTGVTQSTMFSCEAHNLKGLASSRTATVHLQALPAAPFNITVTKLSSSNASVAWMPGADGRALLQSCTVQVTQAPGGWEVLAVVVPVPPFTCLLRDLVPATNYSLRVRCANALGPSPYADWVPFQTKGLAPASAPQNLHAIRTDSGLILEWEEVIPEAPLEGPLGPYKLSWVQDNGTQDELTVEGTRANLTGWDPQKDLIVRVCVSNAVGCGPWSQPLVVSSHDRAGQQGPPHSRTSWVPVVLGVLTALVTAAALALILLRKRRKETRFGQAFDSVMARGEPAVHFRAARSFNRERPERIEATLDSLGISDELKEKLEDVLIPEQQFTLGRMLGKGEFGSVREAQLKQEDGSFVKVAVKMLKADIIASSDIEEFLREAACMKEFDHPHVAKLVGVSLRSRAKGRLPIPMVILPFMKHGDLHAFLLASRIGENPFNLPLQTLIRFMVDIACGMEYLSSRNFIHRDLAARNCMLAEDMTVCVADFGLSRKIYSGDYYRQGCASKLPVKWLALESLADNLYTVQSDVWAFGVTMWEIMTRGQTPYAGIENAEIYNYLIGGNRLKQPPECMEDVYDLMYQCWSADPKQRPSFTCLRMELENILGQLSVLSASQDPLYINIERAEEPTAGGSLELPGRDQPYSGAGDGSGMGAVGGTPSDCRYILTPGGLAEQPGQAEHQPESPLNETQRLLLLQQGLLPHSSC
As to the kind of experiment: Binding affinity to wild-type human partial length TYRO3 (S497 to T814 residues) expressed in bacterial expression system assessed as fraction of unbound kinase to substrate at 1 uM after 1 hr by KinomeScan assay.

Tyrosine-protein kinase ABL1 (Homo sapiens), sequence (P00519 whole entry, the tested form may be a part): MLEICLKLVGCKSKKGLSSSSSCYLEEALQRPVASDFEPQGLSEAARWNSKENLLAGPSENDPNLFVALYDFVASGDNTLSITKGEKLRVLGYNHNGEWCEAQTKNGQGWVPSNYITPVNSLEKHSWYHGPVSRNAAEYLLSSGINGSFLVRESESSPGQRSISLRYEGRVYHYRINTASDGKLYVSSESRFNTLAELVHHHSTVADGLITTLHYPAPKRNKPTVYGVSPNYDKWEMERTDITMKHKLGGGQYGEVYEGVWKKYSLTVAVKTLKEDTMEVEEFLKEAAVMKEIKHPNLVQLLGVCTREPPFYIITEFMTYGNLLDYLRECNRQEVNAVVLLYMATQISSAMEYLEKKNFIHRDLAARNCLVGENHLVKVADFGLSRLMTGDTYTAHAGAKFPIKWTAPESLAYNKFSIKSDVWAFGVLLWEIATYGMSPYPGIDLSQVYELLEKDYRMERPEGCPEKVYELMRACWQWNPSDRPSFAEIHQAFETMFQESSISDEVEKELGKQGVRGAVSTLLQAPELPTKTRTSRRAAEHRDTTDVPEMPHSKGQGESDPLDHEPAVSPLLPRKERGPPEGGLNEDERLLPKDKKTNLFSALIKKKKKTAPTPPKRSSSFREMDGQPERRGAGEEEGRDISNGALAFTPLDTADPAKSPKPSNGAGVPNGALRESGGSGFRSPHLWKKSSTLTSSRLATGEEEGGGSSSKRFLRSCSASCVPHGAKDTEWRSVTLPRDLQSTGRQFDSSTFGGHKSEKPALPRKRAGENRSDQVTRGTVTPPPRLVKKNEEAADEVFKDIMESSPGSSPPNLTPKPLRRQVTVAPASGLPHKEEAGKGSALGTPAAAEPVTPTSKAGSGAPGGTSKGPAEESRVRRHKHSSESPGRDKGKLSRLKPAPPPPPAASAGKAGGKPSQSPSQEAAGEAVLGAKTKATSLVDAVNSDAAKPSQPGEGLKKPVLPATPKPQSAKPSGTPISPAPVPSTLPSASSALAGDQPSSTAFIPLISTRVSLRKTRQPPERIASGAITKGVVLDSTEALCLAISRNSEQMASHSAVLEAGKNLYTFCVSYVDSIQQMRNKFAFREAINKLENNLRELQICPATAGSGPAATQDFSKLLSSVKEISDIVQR

With `O=C(Nc1ccc(Oc2c(Br)cnc3[nH]cnc23)c(F)c1)c1cccn(-c2ccc(F)cc2)c1=O`, the Activity in [1] amounted to 0%; in assay [2] it was 0%; in assay [3], 7%; in assay [4], 0%; in [5], 32%; in assay [6], 1%. The Activity in [7] worked out at 82%; in assay [8], 96.4%; in assay [9] it was 11%.

On to `Cc1cnc2[nH]cnc2c1Oc1ccc(NC(=O)c2cccn(-c3ccc(F)cc3)c2=O)cc1F`, for which the Activity in [1] was determined as 1%; in assay [2], 3%; in [3], 1%; in [4] it was 0%; in [5], 3%; in assay [6], 2%. For the same compound, the figures for the Activity in assay [7], in assay [8] and in [9] were 94.5%, 96.2% and 0%, respectively.

For the compound `O=C(Nc1ccc(Oc2ccnc3[nH]cnc23)c(F)c1)c1cccn(-c2ccc(F)cc2)c1=O`, the Activity in [1] came to 2%; in assay [2], 34%; in assay [3] it was 5%; in assay [4], 0%; in [5], 48%; in assay [6], 2%. Besides, the Activity in [7] came out at 96%; in [8] it was 97%; in assay [9], 81%.

For `CC(C)c1nc2c(Oc3ccc(NC(=O)c4cccn(-c5ccc(F)cc5)c4=O)cc3F)ccnc2[nH]1`, the Activity in assay [1] was 1%; in assay [2] it was 17%; in [3] it was 1%; in assay [4], 95.5%; in [5], 99.7%; in [6], 1%. Also, the Activity was 96.7% in [7], 96.6% in assay [8] and 39% in assay [9].

Source of the values: ChEMBL document CHEMBL4261615, “Design, synthesis, biological evaluation and cellular imaging of imidazo[4,5-b]pyridine derivatives as potent and selective TAM inhibitors” (Bioorg Med Chem, 2018).
